Data on seven compounds can be found in EP0071175A2, “Phenylalkyloxirane-carboxylic acids, process for their preparation, their use and medicines containing them” (Byk Gulden Lomberg Chemische Fabrik GmbH, priority 1981, dated 1983).

Series [1] has as its system nüchterner, stoffwechselgesunder Ratten. Put plainly: Blood glucose determination after single oral application. The series is classed as in vivo, Sprague-Dawley-Ratten. The following applies: maximal lowering vs. control group within 6 hours after single oral application of 0,6 mmol substance/kg body weight; fasted male rats. An excerpt:
(§1) In Tabelle I werden Untersuchungen des Einflusses von Vertretern der erfindungsgemäßen Verbindungen auf die Blutglucosekonzentration nüchterner, stoffwechselgesunder Ratten wiedergegeben. Spalte A gibt jeweils die maximale Senkung der Blutglucosekonzentration nüchterner Ratten (in % bezogen auf die Kontrollgruppe) an, die im Laufe von 6 Stunden nach einmaliger oraler Applikation von 0,6 mmöl Substanz/kg Körpergewicht be-, obachtet wird. In der Spalte B werden Daten zur akuten Toxizität (LD50; Maus p.o.) wiedergegeben.
1. Blutglucosebestimmung nach einmaliger oraler Applikation
Zur Verwendung kommen junge männliche Sprague-Dawley-Ratten (Körpergewicht 150-200 g). Die Haltung der Tiere (6 Tiere pro Dosis) erfolgt in Makrolon-Käfigen mit bis zu 4 Tieren pro Käfig (Raumtemperatur 23 °C, rel. Luftfeuchtigkeit 55 %, fester Tag/Nacht-Rythmus (12/12=h) Standarddiät Altromin®). Den Ratten wird 18 Stunden vor der 1. Blutentnahme das Futter entzogen. Wasseraufnahme erfolgt ad libitum. Blutentnahmen erfolgen unmittelbar vor und 2, 4 und 6 Stunden nach Substanzgabe durch Punktion aus dem retroorbitalen Plexus. Nach Enteiweißung mit Perchlorsäure wird die Blutglucosebestimmung mittels der bei Banauch et.al. [J.Clin.Chem.Clin.Biochem. 13, 101(1975)] beschriebener Glucose-Dehydrogenase-Methode mit Hilfe von kommerziellen Reagentien durchgeführt. Zum Vergleich wird jeweils eine mit reinem Lösungsmittel behandelte Kontrollgruppe mituntersucht (10 Tiere pro Kontrollgruppe).

The next series can be described thus: in vivo. The following applies: mouse, po, read-out: Akute Toxizität Maus p.o. LD50.
Source text: as §1
2. Bestimmung der Toxizität .
Die Toxizitätsuntersuchungen werden an weiblichen NMRI-Mäusen (Körpergewicht 22-26 g) durchgeführt. Die Tiere (5 Tiere pro Dosis) erhalten 18 Stunden vor der Behandlung das Futter (Altromin®) auf 50 g/50 Tiere reduziert und Wasser ad libitum. Verschiedene Dosen der Substanzen werden oral mittels Schlundsonde verabreicht (Volumen 10 ml/kg). Die Beobachtungsdauer beträgt 7 Tage.

Consider `CCCCNC(=N)NC(=N)N` [compound 1, Buformin, reference compound], for which the “Senkung der Blut-glucosekonzentration (in %) in vivo” value in series [1] worked out at 8%.
On the same count and under the same terms, the figure for `[H]/N=C(/N)N/C(=N/[H])NCCc1ccccc1` [compound 2, Phenformin, reference compound] is 6%.
The LD50 is the dose expected to kill half of the subjects tested. As to `CCOC(=O)C1(CCCC(C)Cc2ccccc2)CO1` (stereo not shown) [compound 3, 2-(4-Methyl-5-phenylpentyl)-oxiran-2-carbonsäureethylester], the 50% lethal dose (LD50) in the series “in vivo” is above 1000 mg/kg. For the same compound, in series [1], the “Senkung der Blut-glucosekonzentration (in %) in vivo” value was found to be 45%.
As to `CCOC(=O)C1(CC(CC)CCCc2ccccc2)CO1` (stereo not shown) [compound 4, 2-(2-Ethyl-5-phenylpentyl)-oxiran-2-carbonsäureethylester], the “Senkung der Blut-glucosekonzentration (in %) in vivo” value in series [1] was 25%.
Take `CCOC(=O)C1(CCCC(C)Cc2ccc(Cl)cc2)CO1` (stereo not shown) [compound 5, 2-[5-(4-Chlorphenyl)-4-methylpentyl]-oxiran-2-carbonsäure-ethylester]: the median lethal dose (LD50) in “in vivo” was around 500 mg/kg. For the same compound, the “Senkung der Blut-glucosekonzentration (in %) in vivo” value in series [1] was found to be 70%.
As to `CCOC(=O)C1(CCCC(C)CCCc2ccccc2)CO1` (stereo not shown) [compound 6, 2-(4-Methyl-7-phenylheptyl)-oxiran-2-carbonsäureethylester], the LD50 in “in vivo” is above 500 mg/kg. The “Senkung der Blut-glucosekonzentration (in %) in vivo” value in series [1] is given as 35%.
For `CCOC(=O)C1(CCCCC(C)c2ccccc2)CO1` (stereo not shown) [compound 7, 2-(5-Methyl-5-phenylpentyl)-oxiran-2-carbonsäureethylester], in series [1], the “Senkung der Blut-glucosekonzentration (in %) in vivo” value came out at 22%.
